Results on 3 molecules are retold here after article PMC11614110, “Crystal structure of a short-chain dehydrogenase from Burkholderia cenocepacia J2315 in complex with NADP^+ and benzoic acid” (Acta Crystallographica Section F: Structural Biology …, 2024).

Data set [1] deals with T1, BcSDR (short-chain dehydrogenase reductase from B. cenocepacia J2315) (Burkholderia cenocepacia, UniProt B4EFS5).
T1 construct: gene BCAM2128; vector pBG1861; expressed in E. coli BL21(DE3) R3 Rosetta; homodimer
T1 sequence (B4EFS5 1-237): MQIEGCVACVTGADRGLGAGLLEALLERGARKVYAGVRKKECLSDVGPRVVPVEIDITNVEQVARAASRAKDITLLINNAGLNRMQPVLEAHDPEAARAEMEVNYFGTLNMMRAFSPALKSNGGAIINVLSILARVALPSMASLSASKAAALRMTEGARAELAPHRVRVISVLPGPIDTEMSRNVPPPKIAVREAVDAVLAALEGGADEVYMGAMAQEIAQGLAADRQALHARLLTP
The data set is described as follows: X-ray crystal structure, […] A. It counts as binding. The following applies: pH 4.2, 290 K.

Data set [2] concerns the molecule itself. Kind of data set: crystal structure; sitting-drop vapor diffusion, 290 K; 23.45 mg/ml protein, 5 mM NADP+; 40% PEG 300, 100 mM sodium phosphate dibasic/citric acid pH 4.2; space group P212121, two molecules per asymmetric unit; dimer assignment supported by PDBePISA.

For the molecule `NC(=O)c1ccc[n+]([C@@H]2O[C@H](COP(=O)(O)OP(=O)(O)OC[C@H]3O[C@@H](n4cnc5c(N)ncnc54)[C@H](OP(=O)(O)O)[C@@H]3O)[C@@H](O)[C@H]2O)c1` [NADP^+], the “X-ray crystal structure, 1.40 A” value in data set [1] (5 mM NADP+ in co-crystallization drop, coenzyme site, both chains) is “The structure of BcSDR showed clear electron density for NADP^+ in the coenzyme-binding site”.
Take `O=C(O)c1ccccc1` [benzoic acid]: the “X-ray crystal structure, 1.40 A” value in data set [1] (not added, co-purified ligand, active site, NADP+ bound) is reported as “BcSDR co-crystallized with a molecule of benzoic acid bound in the active site”.

B1: short-chain dehydrogenase reductase (SDR) from Burkholderia cenocepacia J2315 (enzyme, Burkholderia cenocepacia (strain J2315))
chain: T1 sequence (B4EFS5 1-237)
notes: putative short-chain dehydrogenase reductase, Burkholderia cenocepacia J2315, UniProt B4EFS5; full-length gene stated to encode amino acids 1-237; Crystallised with NADP+ and a benzoic acid ligand; a phosphate ion lies at the dimer interface; also called BcSDR; His-BcSDR; source: Escherichia coli BL21(DE3) R3 Rosetta, purified (Ni2+ IMAC, SEC on Superdex 75); not shown: His6, N-terminal, kept
As to B1, the binding result in data set [2] was “binds”.
